Columns and labels:
Assay type in all cases: cell-based
[1] = system: Botryotinia fuckeliana (Botrytis cinerea); assay: Botryotinia fuckeliana (Botrytis cinerea) / liquid culture (gray mould); conditions: growth inhibition photometrically 3-4 days after application, read-out: control of Botryotinia fuckeliana
Protocol: (§1) Example B2: Botryotinia fuckeliana (Botrytis cinerea)/Liquid Culture (Gray Mould) Conidia of the fungus from cryogenic storage are directly mixed into nutrient broth (Vogels broth). After placing a (DMSO) solution of test compound into a microtiter plate (96-well format), the nutrient broth containing the fungal spores is added. The test plates are incubated at 24° C. and the inhibition of growth is determined photometrically 3-4 days after application.

[2] = system: Mycosphaerella graminicola (Septoria tritici); assay: Mycosphaerella graminicola (Septoria tritici) / liquid culture (Septoria blotch); conditions: Zymoseptoria tritici, growth inhibition photometrically 4-5 days after application, read-out: control of Mycosphaerella graminicola
Protocol: as §1, with “B16: Mycosphaerella graminicola (Septoria tritici)/Liquid” for “B2: Botryotinia fuckeliana (Botrytis cinerea)/Liquid”, “(Septoria Blotch)” for “(Gray Mould)”, “(PDB potato dextrose” for “(Vogels”, “4-5” for “3-4”

[3] = system: Monographella nivalis (Microdochium nivale); assay: Monographella nivalis (Microdochium nivale) / liquid culture (foot rot cereals); conditions: growth inhibition photometrically 4-5 days after application, read-out: control of Monographella nivalis
Protocol: as §1, with “B9: Monographella nivalis (Microdochium nivale)/Liquid” for “B2: Botryotinia fuckeliana (Botrytis cinerea)/Liquid”, “(Foot Rot Cereals)” for “(Gray Mould)”, “(PDB potato dextrose” for “(Vogels”, “4-5” for “3-4”

SMILES	inhibition of growth at 20 ppm [1] [%]	inhibition of growth at 20 ppm [2] [%]	inhibition of growth at 20 ppm [3] [%]
Cn1cc(C(C)(CNC(=O)c2cc(-c3ccc(F)cc3F)on2)c2cc(C#N)cc(Cl)n2)cn1 (centres unmarked) [Compound P-41, N-[2-(6-chloro-4-cyano-2-pyridyl)-2-(1-methylpyrazol-4-yl)propyl]-5-(2,4-difluorophenyl) isoxazole-3-carboxamide]	≥ 80	≥ 80	–
Cn1cc(C(C)(CNC(=O)c2cc(-c3ccc(F)cc3F)on2)c2cc(O)cc(Cl)n2)cn1 (centres unmarked) [Compound P-38, N-[2-(6-chloro-4-hydroxy-2-pyridyl)-2-(1-methylpyrazol-4-yl)propyl]-5-(2,4-difluorophenyl) isoxazole-3-carboxamide]	≥ 80	≥ 80	–
Cn1cc(C(C)(CNC(=O)c2cc(-c3ccc(F)cc3F)on2)c2cc(Br)ccn2)cn1 (centres unmarked) [Compound P-66, N-[2-(4-bromo-2-pyridyl)-2-(1-methylpyrazol-4-yl)propyl]-5-(2,4-difluorophenyl) isoxazole-3-carboxamide]	–	≥ 80	–
COc1ccc(C(C)=O)nc1C(C)(CNC(=O)c1cc(-c2ccc(F)cc2F)on1)c1cnn(C)c1 (centres unmarked) [Compound P-112]	–	≥ 80	–
COc1ncc(-c2cccc(C(C)(CNC(=O)c3cc(-c4ccc(F)cc4F)on3)c3cnn(C)c3)n2)c(OC)n1 (centres unmarked) [Compound P-88, 5-(2,4-difluorophenyl)-N-[2-[6-(2,4-dimethoxypyrimidin-5-yl)-2-pyridyl]-2-(1-methylpyrazol-4-yl)propyl]isoxazole-3-carboxamide]	≥ 80	≥ 80	≥ 80
COc1ccc(C(C)(CNC(=O)c2cc(-c3ccc(F)cc3F)on2)c2cnn(C)c2)nc1Br (centres unmarked) [Compound P-109, N-[2-(6-bromo-5-methoxy-2-pyridyl)-2-(1-methylpyrazol-4-yl)propyl]-5-(2,4-difluorophenyl) isoxazole-3-carboxamide]	–	≥ 80	–
Cc1cc(C(=O)NCC(C)(c2cnn(C)c2)c2cccc(Cl)n2)no1 (centres unmarked) [Compound P-77, N-[2-(6-chloro-2-pyridyl)-2-(1-methylpyrazol-4-yl)propyl]-5-methyl-isoxazole-3-carboxamide]	–	≥ 80	–
Cn1cc(C(C)(CNC(=O)c2nnc(-c3ccc(F)cc3F)s2)c2ncccc2Cl)cn1 (centres unmarked) [Compound P-1, N-[2-(3-chloro-2-pyridyl)-2-(1-methylpyrazol-4-yl)propyl]-5-(2,4-difluorophenyl)-1,3,4-thiadiazole-2-carboxamide]	≥ 80	≥ 80	≥ 80
Cn1cc(C(C)(CNC(=O)c2cc(-c3ccc(F)cc3F)on2)c2cccc(-c3ccnn3C)n2)cn1 (centres unmarked) [Compound P-95, 5-(2,4-difluorophenyl)-N-[2-(1-methylpyrazol-4-yl)-2-[6-(2-methylpyrazol-3-yl)-2-pyridyl]propyl] isoxazole-3-carboxamide]	–	≥ 80	≥ 80
COc1cc(Cl)nc([C@](C)(CNC(=O)c2cc(-c3ccc(F)cc3F)no2)c2cnn(C)c2)c1 [Compound P-47, N-[(2S)-2-(6-chloro-4-methoxy-2-pyridyl)-2-(1-methylpyrazol-4-yl)propyl]-3-(2,4-difluorophenyl) isoxazole-5-carboxamide]	≥ 80	≥ 80	≥ 80
Cc1cncc(-c2cccc(C(C)(CNC(=O)c3cc(-c4ccc(F)cc4F)on3)c3cnn(C)c3)n2)c1 (centres unmarked) [Compound P-91, 5-(2,4-difluorophenyl)-N-[2-(1-methylpyrazol-4-yl)-2-[6-(5-methyl-3-pyridyl)-2-pyridyl]propyl] isoxazole-3-carboxamide]	–	≥ 80	≥ 80
Cc1c(-c2cccc(C(C)(CNC(=O)c3cc(-c4ccc(F)cc4F)on3)c3cnn(C)c3)n2)ccnc1F (centres unmarked) [Compound P-98, 5-(2,4-difluorophenyl)-N-[2-[6-(2-fluoro-3-methyl-4-pyridyl)-2-pyridyl]-2-(1-methylpyrazol-4-yl)propyl]isoxazole-3-carboxamide]	–	≥ 80	–
Cn1cc(C(CNC(=O)c2cc(-c3ccc(F)cc3F)on2)c2cccc(Cl)n2)cn1 (centres unmarked) [Compound P-13, N-[2-(6-chloro-2-pyridyl)-2-(1-methylpyrazol-4-yl)ethyl]-5-(2,4-difluorophenyl)isoxazole-3-carboxamide]	≥ 80	≥ 80	≥ 80
Cc1noc(C)c1-c1cccc(C(C)(CNC(=O)c2cc(-c3ccc(F)cc3F)on2)c2cnn(C)c2)n1 (centres unmarked) [Compound P-94, 5-(2,4-difluorophenyl)-N-[2-[6-(3,5-dimethylisoxazol-4-yl)-2-pyridyl]-2-(1-methylpyrazol-4-yl)propyl]isoxazole-3-carboxamide]	–	≥ 80	≥ 80
Cn1cc(C(C)(CNC(=O)c2cc(-c3ccc(F)cc3F)on2)c2cc(Cl)ccn2)cn1 (centres unmarked) [Compound P-18, N-[2-(4-chloro-2-pyridyl)-2-(1-methylpyrazol-4-yl)propyl]-5-(2,4-difluorophenyl) isoxazole-3-carboxamide]	–	≥ 80	≥ 80
COc1cccc(C(C)(CNC(=O)c2cc(-c3ccc(F)cc3OC)on2)c2cnn(C)c2)n1 (centres unmarked) [Compound P-99, 5-(4-fluoro-2-methoxy-phenyl)-N-[2-(6-methoxy-2-pyridyl)-2-(1-methylpyrazol-4-yl)propyl]isoxazole-3-carboxamide]	–	≥ 80	–
COc1cc(C#N)nc(C(C)(CNC(=O)c2cc(-c3ccc(F)cc3F)on2)c2cnn(C)c2)c1 (centres unmarked) [Compound P-67, N-[2-(6-cyano-4-methoxy-2-pyridyl)-2-(1-methylpyrazol-4-yl)propyl]-5-(2,4-difluorophenyl) isoxazole-3-carboxamide]	–	≥ 80	≥ 80
Cn1cc(C(C)(CNC(=O)c2cc(-c3ccc(F)cc3F)on2)c2ccc(N)cn2)cn1 (centres unmarked) [Compound P-58, N-[2-(5-amino-2-pyridyl)-2-(1-methylpyrazol-4-yl)propyl]-5-(2,4-difluorophenyl) isoxazole-3-carboxamide]	–	–	≥ 80
Cn1cc(C(C)(CNC(=O)c2cc(-c3ccc(F)cc3F)on2)c2cccc(C3(C#N)CC3)n2)cn1 (centres unmarked) [Compound P-104, N-[2-[6-(1-cyanocyclopropyl)-2-pyridyl]-2-(1-methylpyrazol-4-yl)propyl]-5-(2,4-difluorophenyl) isoxazole-3-carboxamide]	–	≥ 80	≥ 80
Cc1cc(-c2cccc(C(C)(CNC(=O)c3cc(-c4ccc(F)cc4F)on3)c3cnn(C)c3)n2)ccn1 (centres unmarked) [Compound P-89, 5-(2,4-difluorophenyl)-N-[2-(1-methylpyrazol-4-yl)-2-[6-(2-methyl-4-pyridyl)-2-pyridyl]propyl] isoxazole-3-carboxamide]	–	≥ 80	≥ 80
Cc1ncc(-c2cccc(C(C)(CNC(=O)c3cc(-c4ccc(F)cc4F)on3)c3cnn(C)c3)n2)cc1F (centres unmarked) [Compound P-97, 5-(2,4-difluorophenyl)-N-[2-[6-(5-fluoro-6-methyl-3-pyridyl)-2-pyridyl]-2-(1-methylpyrazol-4-yl)propyl]isoxazole-3-carboxamide]	–	≥ 80	–
